Test results from patent US12485119B2, “Methods of treating pulmonary arterial hypertension” (ACTELION PHARMACEUTICALS LTD, priority 2019, dated 2025).

Tests used:
[1] = system: newly diagnosed, treatment-naïve subjects with PAH
Source text: The following safety endpoints will be used: • Treatment-emergent AEs. • AEs leading to premature discontinuation of any of the 3 study treatments. • Treatment-emergent SAEs. • Treatment-emergent deaths. • Treatment-emergent marked laboratory abnormalities. • Change from baseline in laboratory variables. • Change from baseline in vital signs.
The safety endpoints will be analyzed for the following time periods: • From Day 1 until EOMOP. • From Day 1 until start of double-blind treatment (selexipag/placebo). • From start until discontinuation of macitentan study treatment (or until EOMOP, whichever is first)+30 days safety follow up. • From start until discontinuation of tadalafil study treatment (or until EOMOP, whichever is first)+30 days safety follow up. • From start until discontinuation of double-blind treatment (or until EOMOP, whichever is first)+30 days safety follow up. • From EOMOP until EOT plus 30 days safety follow-up. • The 30 days safety follow-up.

[2] = system: newly diagnosed, treatment-naïve subjects with PAH; experiment: Exposure to study treatments, individual maintenance dose and maximum tolerated dose; assay type: in vivo, human; conditions: up to EOMOP; Safety Set
Procedure: The starting dose of double-blind selexipag or placebo on Day 15±3 is 200 μg twice daily (in the morning and in the evening). The dose is up-titrated in increments of 200 μg twice daily, usually at weekly intervals (see Table 1), until either a maximum dose of 1600 μg twice daily is reached or adverse pharmacological effects that cannot be tolerated or medically managed are experienced, whichever is first. In the event of adverse effects typical of prostanoid therapy, it is recommended not to discontinue double-blind treatment because these effects are usually transient or manageable with symptomatic treatment. If a dose that cannot be tolerated is reached, the dose should be reduced to the previous dose level.

[3] = risk TEAEs (EU Uptravi RMP) up to EOMOP

CC(C)N(CCCCOCC(=O)NS(C)(=O)=O)c1cnc(-c2ccccc2)c(-c2ccccc2)n1 [Selexipag, 2-{4-[(5,6-diphenylpyrazin-2-yl)(propan-2-yl)amino]butoxy}-N-(methanesulfonyl)acetamide]
(2.5) %: Renal risk: PT Blood creatinine increased, % [1, 3]
1000.0 µg: Maximum tolerated dose of double-blind treatment (b.i.d), Median [2]
(6.7) %: Risk Anaemia: PT Haemoglobin decreased, % [1, 3] | Risk Anaemia: PT Iron deficiency anaemia, % [1, 3]
(3.4) %: Bleeding events: PT Gastrointestinal haemorrhage, % [1, 3] | Renal risk: PT Acute kidney injury, % [1, 3]
(21.8) %: Risk Bleeding events (all PTs), % [1, 3]
(7.6) %: Risk Hypotension: PT Hypotension, % [1, 3]
(49.6) %: Subjects with At Least One Identified or Potential Risk AE, % [1, 3]
(4.2) %: Risk Ophthalmological effects associated to retinal vascular system (all PTs), % [1, 3]
(25.2) %: Risk Anaemia (all PTs), % [1, 3]
well-tolerated: Tolerability as part of the initial triple therapy regimen ([1]; in vivo)
(0.8) %: Bleeding events: PT Blood loss anaemia, % [1, 3] | Bleeding events: PT Conjunctival haemorrhage, % [1, 3] | Bleeding events: PT Contusion, % [1, 3] | Bleeding events: PT Gastrointestinal polyp haemorrhage, % [1, 3] | Bleeding events: PT Gingival bleeding, % [1, 3] | Bleeding events: PT Haematochezia, % [1, 3] | Bleeding events: PT Haemoptysis, % [1, 3] | Bleeding events: PT Haemorrhoidal haemorrhage, % [1, 3] | Bleeding events: PT Hereditary haemorrhagic telangiectasia, % [1, 3] | Bleeding events: PT Melaena, % [1, 3] | Bleeding events: PT Menorrhagia, % [1, 3] | Bleeding events: PT Vaginal haemorrhage, % [1, 3] | Bleeding events: PT Vascular rupture, % [1, 3] | GI intussusception risk: PT Small intestinal obstruction, % [1, 3] | MACE: PT Transient ischaemic attack, % [1, 3] | Medication errors: PT Accidental overdose, % [1, 3] | Ophthalmological risk: PT Blindness, % [1, 3] | Ophthalmological risk: PT Photopsia, % [1, 3] | Ophthalmological risk: PT Retinal vasculitis, % [1, 3] | Ophthalmological risk: PT Vitreous floaters, % [1, 3] | PVOD/pulmonary oedema risk: PT Pulmonary oedema, % [1, 3] | PVOD/pulmonary oedema risk: PT Pulmonary veno-occlusive disease, % [1, 3] | Renal risk: PT Glomerular filtration rate decreased, % [1, 3] | Renal risk: PT Prerenal failure, % [1, 3] | Renal risk: PT Renal failure, % [1, 3] | Renal risk: PT Renal impairment, % [1, 3] | Risk Anaemia: PT Blood loss anaemia, % [1, 3] | Risk Anaemia: PT Haematocrit decreased, % [1, 3] | Risk Anaemia: PT Red blood cell count decreased, % [1, 3] | Risk Gastrointestinal disturbances denoting intestinal intussusception (manifested as ileus or obstruction), % [1, 3] | Risk Hypotension: PT Orthostatic hypotension, % [1, 3] | Risk Light-dependent non-melanoma skin malignancies (all PTs), % [1, 3] | Risk Major adverse cardiovascular events (MACE) (all PTs), % [1, 3] | Risk Medication errors (all PTs), % [1, 3] | Skin malignancies risk: PT Basal cell carcinoma, % [1, 3]
(12.6) %: Risk Anaemia: PT Anaemia, % [1, 3]
(9.2) %: Bleeding events: PT Epistaxis, % [1, 3]
(8.4) %: Risk Hypotension (all PTs), % [1, 3] | Risk Renal function impairment/acute renal failure (all PTs), % [1, 3]
(1.7) %: Bleeding events: PT Haematoma, % [1, 3] | Bleeding events: PT Metrorrhagia, % [1, 3] | Bleeding events: PT Upper gastrointestinal haemorrhage, % [1, 3] | Ophthalmological risk: PT Vision blurred, % [1, 3] | Risk Anaemia: PT Microcytic anaemia, % [1, 3] | Risk Pulmonary venoocclusive disease associated with pulmonary oedema (all PTs), % [1, 3]
